Like-named read-outs stand apart in the source and are kept apart here.
Experiments:
Format in all cases: biochemical
Cathepsin S = Cathepsin S (Homo sapiens, UniProt P25774); experiment: Cathepsin S inhibition, fluorogenic peptide substrate kinetic assay;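 further: cleavage rate of a coumarin-labelled peptide substrate (50 µM) read as fluorescence increase at Ex 380 nm and Em 450 nm, relative to inhibitor-free control reactions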
Cathepsin K = molecular target: T1, Cathepsin K (Homo sapiens, UniProt P43235); experiment: Cathepsin K inhibition, fluorogenic peptide substrate kinetic assay (selectivity); details: ratio of cathepsin K inhibition constant to cathepsin S inhibition constant
T1 sequence (P43235 115-329): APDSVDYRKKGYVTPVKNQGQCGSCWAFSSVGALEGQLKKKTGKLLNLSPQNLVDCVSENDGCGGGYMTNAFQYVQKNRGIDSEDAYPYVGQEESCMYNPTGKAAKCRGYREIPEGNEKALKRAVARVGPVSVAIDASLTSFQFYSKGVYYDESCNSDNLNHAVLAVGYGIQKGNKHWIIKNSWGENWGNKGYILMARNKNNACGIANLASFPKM

Cathepsin L = Cathepsin L (Homo sapiens, UniProt P07711); experiment: Cathepsin L inhibition, fluorogenic peptide substrate kinetic assay (selectivity); details: ratio of cathepsin L inhibition constant to cathepsin S inhibition constant
Cathepsin L, sequence (P07711 114-333, species assumed): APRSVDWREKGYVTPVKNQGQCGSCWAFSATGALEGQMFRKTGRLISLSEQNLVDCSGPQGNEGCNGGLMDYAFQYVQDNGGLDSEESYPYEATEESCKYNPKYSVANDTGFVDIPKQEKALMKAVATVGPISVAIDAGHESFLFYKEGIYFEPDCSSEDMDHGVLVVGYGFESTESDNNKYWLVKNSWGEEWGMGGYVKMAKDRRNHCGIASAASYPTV

Cathepsin B = Cathepsin B (Homo sapiens, UniProt P07858); experiment: Cathepsin B inhibition, fluorogenic peptide substrate kinetic assay (selectivity); details: ratio of cathepsin B inhibition constant to cathepsin S inhibition constant;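 further: value is the cathepsin B inhibition constant divided by the cathepsin S one, each from kinetic fluorescence readings (ex 380 nm, em 450 nm) of a 10 µM coumarin peptide substrate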
[1] = Cathepsin S inhibition constant, pH5.5, 20 minutes preincubation at room temperature, read-out: Ki Cat. S

Cathepsin S, sequence (P25774 115-331, species assumed): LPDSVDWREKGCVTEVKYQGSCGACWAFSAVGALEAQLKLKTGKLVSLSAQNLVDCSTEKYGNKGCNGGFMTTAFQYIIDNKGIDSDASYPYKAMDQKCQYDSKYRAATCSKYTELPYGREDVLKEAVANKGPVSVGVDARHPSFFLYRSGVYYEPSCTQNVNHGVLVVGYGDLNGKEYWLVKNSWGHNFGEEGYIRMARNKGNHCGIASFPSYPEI

| Structure (SMILES) | Ki (Cathepsin S; [1]) | Selectivity for Cat. S over Cat. K (Cathepsin K) | Selectivity for Cat. S over Cat. L (Cathepsin L) | Selectivity for Cat. S over Cat. B (Cathepsin B) | Ki (Cathepsin S) |
| --- | --- | --- | --- | --- | --- |
| C[C@@H](CN1c2ccc(F)cc2CC1(C)C)NC(=O)O[C@@H](CC1CCCCC1)C(=O)N1CCN(S(C)(=O)=O)CC1 [Example 95, [2-(5-Fluoro-2,2-dimethyl-2,3-dihydro-indol-1-yl)-1-(S)-methyl-ethyl]-carbamic acid 1-(S)-cyclohexylmethyl-2-(4-methanesulfonyl-piperazin-1-yl)-2-oxo-ethyl ester] | 1000 to 10000 nM | + (+, >10) | + (+, >10) | + (+, >10) |  |
| O=C(N[C@H](CNc1ccc(OC(F)(F)F)cc1)C1CC1)[C@@H](CC(=O)N1CCOCC1)c1ccc(C(F)(F)F)cc1 [Example 70, N-[1-(S)-Cyclopropyl-2-(4-trifluoromethoxy-phenylamino)-ethyl]-4-morpholin-4-yl-4-oxo-2-(S)-(4-trifluoromethyl-phenyl)-butyramide] |  | ++ (++, >100) | ++ (++, >100) | ++ (++, >100) | 100 to 1000 nM |
| CC1(C)CN(C[C@@H](NC(=O)[C@H](CC2CCCCC2)NC(=O)N2CCOCC2)C2CC2)c2ccc(F)cc21 [Example 81, Morpholine-4-carboxylic acid {2-cyclohexyl-1-(S)-[1-(S)-cyclopropyl-2-(5-fluoro-3,3-dimethyl-2,3-dihydro-indol-1-yl)-ethylcarbamoyl]-ethyl}-amide] | < 100 nM | ++ (++, >100) | + (+, >10) | +++ (+++, >1000) |  |
| CCC[C@@H](CNc1ccc(OC(F)(F)F)cc1)NC(=O)[C@@H](CC(=O)N1CCOCC1)c1ccccc1 [Example 39, 4-Morpholin-4-yl-4-oxo-2-(S)-phenyl-N-{1-(S)-[(4-trifluoromethoxy-phenylamino)-methyl]-butyl}-butyramide] | < 100 nM | + (+, >10) | ++ (++, >100) | +++ (+++, >1000) |  |
| CCC[C@@H](CNc1ccc(OC(F)(F)F)cc1)NC(=O)[C@@H](CC(=O)N1CCOCC1)CC1CCCC1 [Example 27, 2-(R)-Cyclopentylmethyl-4-morpholin-4-yl-4-oxo-N-{1-(S)-[(4-trifluoromethoxy-phenylamino)-methyl]-butyl}-butyramide] |  | + (+, >10) | ++ (++, >100) | +++ (+++, >1000) | < 100 nM |
| COc1ccc(NC[C@H](C)NC(=O)[C@H](CC2CCCCC2)NC(=O)N2CCOCC2)cc1 [Example 72, (S,S)-Morpholine-4-carboxylic acid {2-cyclohexyl-1-[2-(4-methoxy-phenylamino)-1-methyl-ethylcarbamoyl]-ethyl}-amide] | < 100 nM | ++ (++, >100) | + (+, >10) | ++ (++, >100) |  |
